# Source: patent US6977270B2, “Tocotrienolquinone cyclization product with an anti-hypercholesterol effect” (BASF Aktiengesellschaft, priority 2000, dated 2005)
# Test system: Cholesterol Synthesis in HepG2 Cells
# Test: Determination of cholesterol synthesis in HepG2 cells (14C-acetate incorporation into the non-saponifiable lipid/sterol fraction)
# Format: cell-based
# Conditions: mean of three
# Protocol: Determination of Cholesterol Synthesis in HepG2 Cells (cf. Fahrner, J. et al., Eur. J. Biochem. 213: 1067-1073 (1993); Gebhardt, R., Lipids 28: 613-619 (1993); Pill, J. et al., Z. Anal. Chem. 332: 512-513 (1985)
# To detect an effect on cholesterol biosynthesis by test substances, HepG2 cell cultures were used. These cells were cultured up to confluence in 35 mm 6-well cell culture incubation dishes in DMEM medium (Gibco, Eggenstein, Germany) with 2 mM gentamin, 10% fetal calf serum, 40 U/ml of streptomycin and 50 U/ml of penicillin. Frozen cells were cultured and passaged for one week before use. The confluent cells were then incubated in serum-free Williams Medium E for 4 hours at 37° C. with the test substances. ^14C-Acetate (18.5 kBq/ml; 0.5 μCi/ml) was then added to the solutions. The test substances were diluted in DMSO and used at the concentrations specified. […]
# Incorporation of ^14C-acetate into the non-saponifiable lipid fraction (sterol fraction) was determined by the following method: 1.4 ml of homogenates were incubated with 2.8 ml of 0.5 M KOH in EtOH with shaking for 1 hour at 70° C. […] The ^14C activity in the samples was determined, after addition of 10 ml of scintillation solution (Ultima Gold®, Packard, Merident, Conn.) in a scintillation counter. The measured values shown are to be understood as means of three independent culture dishes per test solution. […]
smiles,measurement,setting,value
CC(C)=CCC/C(C)=C/CC/C(C)=C/CC[C@]1(C)CCc2cc(O)c(C)c(C)c2O1 [R-γ-Tocotrienol],inhibition of 14C-acetate incorporation,"concentration 5×10^−6 M, relative to DMSO control (100%)",approximately 20%
same,maximum significant inhibition of 14C-acetate incorporation,"concentrations ≧5×10^−5 M, relative to DMSO control",approximately 50%
